# Laboratory results published in US20250368625A1, “PIPERAZINES” (Grünenthal GmbH, priority 2024, published 2025).
# Target: T1, human SSTR4 (Homo sapiens, UniProt P31391)
# T1 construct: expressed in transfected cells; host or cells: CHO-K1
# Assay: hSSTR4 cAMP assay (cAMP accumulation, LANCE Ultra cAMP kit, CHO-K1 human SSTR4 Gi cell line)
# Assay type: cell-based
# Conditions: functional agonism, forskolin 10 μM stimulated CHO-K1 human SSTR4 Gi cells, 30 min at 25° C., at least duplicate, averaged; read-out: hSSTR4 EC50
# Experimental: cAMP accumulation assay using a CHO-K1 human SSTR4 Gi cell line.
# Quantification of intracellular cAMP was performed using the LANCE Ultra cAMP assay kit from Revvity according to the manufacturer's instructions. CHO-K1 human SSTR4 Gi cell were either seeded in a density of 3K cells per well into a 384 well plate and incubated at 37° C. and 5% CO2 for 18-20 h or a stock of frozen cells were defrosted and seeded in a density of 5K cells per well without any further cultivation directly prior to the assay in a total volume of 5 μL in stimulation buffer. For pre-cultured cells, medium was replaced with 5 μL stimulation buffer before the assay. Cells were then stimulated with forskolin (final concentration 10 μM) and test compound (SSTR4 agonist) in increasing concentrations in duplicates for 30 min at 25° C. After stimulation, cells were lysed by addition of 10 μL of detection buffer (provided with the kit) and cell lysates were further diluted to ensure final cAMP concentrations fitted well into the dynamic range of the test kit. 10 μL of the diluted lysates were then added to respective wells of an OptiPlate-384 microplate. Thereafter, 5 μL of 4× Eu-cAMP tracer working solution was added, followed by addition of 5 μL of ULight-anti-cAMP working solution. The plate was then incubated for 1 h at 25° C. before reading on a TR-FRET microplate instrument. Data were normalized to cAMP high (forskolin only) and low control (forskolin+100 nM SST14) before fitting to a 4-Paramter logistic function.
# All data was generated according to the cAMP assay conditions described above in at least duplicate and results are averaged and rounded to two significant figures.
# T1 sequence (P31391 whole entry): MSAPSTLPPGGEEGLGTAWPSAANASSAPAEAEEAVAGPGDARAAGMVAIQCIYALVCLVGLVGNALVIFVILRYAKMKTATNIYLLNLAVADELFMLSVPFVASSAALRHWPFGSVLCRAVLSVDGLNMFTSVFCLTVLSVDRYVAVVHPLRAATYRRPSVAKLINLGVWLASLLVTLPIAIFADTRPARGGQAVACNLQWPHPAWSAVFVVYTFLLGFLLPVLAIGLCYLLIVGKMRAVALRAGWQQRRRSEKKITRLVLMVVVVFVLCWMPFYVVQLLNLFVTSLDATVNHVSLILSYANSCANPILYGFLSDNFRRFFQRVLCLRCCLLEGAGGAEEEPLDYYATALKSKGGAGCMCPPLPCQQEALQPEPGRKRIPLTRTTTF
row,EC50 [nM],Structure (SMILES)
1,930,"Cc1cccn2c(C(C)(C)NC(=O)[C@@H]3CN(Cc4cocn4)CCN3)ncc12 [SC-063, (S)-N-(2-(8-methylimidazo[1,5-a]pyridin-3-yl)propan-2-yl)-4-(oxazol-4-ylmethyl)piperazine-2-carboxamide]"
2,13000,"Cc1cccn2c(C(C)(C)NC(=O)[C@@H]3CN(Cc4cc(C(F)(F)F)nn4C)CCN3)ncc12 [SC-064, (S)-4-((1-methyl-3-(trifluoromethyl)-1H-pyrazol-5-yl)methyl)-N-(2-(8-methylimidazo[1,5-a]pyridin-3-yl)propan-2-yl)piperazine-2-carboxamide]"
3,1300,"Cc1cccn2c(C(C)(C)NC(=O)[C@@H]3CN(Cc4ncco4)CCN3)ncc12 [SC-065, (S)-N-(2-(8-methylimidazo[1,5-a]pyridin-3-yl)propan-2-yl)-4-(oxazol-2-ylmethyl)piperazine-2-carboxamide]"
4,1600,"Cc1cccn2c(C(C)(C)NC(=O)[C@@H]3CN(Cc4ccn(C)n4)CCN3)ncc12 [SC-066, (S)-4-((1-methyl-1H-pyrazol-3-yl)methyl)-N-(2-(8-methylimidazo[1,5-a]pyridin-3-yl)propan-2-yl)piperazine-2-carboxamide]"
5,2400,"Cc1cccn2c(C(C)(C)NC(=O)[C@@H]3CN(CC4CCC(F)(F)CC4)CCN3)ncc12 [SC-067, (S)-4-((4,4-difluorocyclohexyl)methyl)-N-(2-(8-methylimidazo[1,5-a]pyridin-3-yl)propan-2-yl)piperazine-2-carboxamide]"
6,590,"Cc1cccn2c(C(C)(C)NC(=O)[C@@H]3CN(CC4CCC4)CCN3)ncc12 [SC-068, (S)-4-(cyclobutylmethyl)-N-(2-(8-methylimidazo[1,5-a]pyridin-3-yl)propan-2-yl)piperazine-2-carboxamide]"
7,300,"Cc1cccn2c(C(C)(C)NC(=O)[C@@H]3CN(CC(C)C)CCN3)ncc12 [SC-069, (S)-4-isobutyl-N-(2-(8-methylimidazo[1,5-a]pyridin-3-yl)propan-2-yl)piperazine-2-carboxamide]"
8,82,"CCCN1CCN[C@H](C(=O)NC(C)(C)c2ncc3c(C)cccn23)C1 [SC-070, (S)-N-(2-(8-methylimidazo[1,5-a]pyridin-3-yl)propan-2-yl)-4-propylpiperazine-2-carboxamide]"
9,540,"Cc1cccn2c(C(C)(C)NC(=O)[C@@H]3CN(Cc4cnn(C)c4)CCN3)ncc12 [SC-071, (S)-4-((1-methyl-1H-pyrazol-4-yl)methyl)-N-(2-(8-methylimidazo[1,5-a]pyridin-3-yl)propan-2-yl)piperazine-2-carboxamide]"
10,1200,"Cc1cccn2c(C(C)(C)NC(=O)[C@@H]3CN(Cc4ccnn4C)CCN3)ncc12 [SC-072, (S)-4-((1-methyl-1H-pyrazol-5-yl)methyl)-N-(2-(8-methylimidazo[1,5-a]pyridin-3-yl)propan-2-yl)piperazine-2-carboxamide]"
11,4800,"Cc1cccn2c(C(C)(C)NC(=O)[C@@H]3CN(Cc4ccn(C(C)C)n4)CCN3)ncc12 [SC-073, (S)-4-((1-isopropyl-1H-pyrazol-3-yl)methyl)-N-(2-(8-methylimidazo[1,5-a]pyridin-3-yl)propan-2-yl)piperazine-2-carboxamide]"
12,2600,"Cc1cccn2c(C(C)(C)NC(=O)[C@@H]3CN(Cc4cnn(C(C)C)c4)CCN3)ncc12 [SC-074, (S)-4-((1-isopropyl-1H-pyrazol-4-yl)methyl)-N-(2-(8-methylimidazo[1,5-a]pyridin-3-yl)propan-2-yl)piperazine-2-carboxamide]"
13,620,"Cc1cccn2c(C(C)(C)NC(=O)[C@@H]3CN(C4COC4)CCN3)ncc12 [SC-075, (S)-N-(2-(8-methylimidazo[1,5-a]pyridin-3-yl)propan-2-yl)-4-(oxetan-3-yl)piperazine-2-carboxamide]"
14,620,"Cc1cccn2c(C(C)(C)NC(=O)[C@@H]3CN(CC4COC4)CCN3)ncc12 [SC-076, (S)-N-(2-(8-methylimidazo[1,5-a]pyridin-3-yl)propan-2-yl)-4-(oxetan-3-ylmethyl)piperazine-2-carboxamide]"
15,> 1000,"Cc1cccn2c(C(C)(C)NC(=O)[C@@H]3CN(C(=O)C4CC4)CCN3)ncc12 [SC-077, (S)-4-(cyclopropanecarbonyl)-N-(2-(8-methylimidazo[1,5-a]pyridin-3-yl)propan-2-yl)piperazine-2-carboxamide]"
16,6500,"Cc1cccn2c(C(C)(C)NC(=O)[C@@H]3CN(C(=O)C4CCOCC4)CCN3)ncc12 [SC-078, (S)-N-(2-(8-methylimidazo[1,5-a]pyridin-3-yl)propan-2-yl)-4-(tetrahydro-2H-pyran-4-carbonyl)piperazine-2-carboxamide]"

row,EC50 [nM],Structure (SMILES)
1,15000,"Cc1cccn2c(C(C)(C)NC(=O)[C@@H]3CN(C(=O)CC4CCOCC4)CCN3)ncc12 [SC-079, (S)-N-(2-(8-methylimidazo[1,5-a]pyridin-3-yl)propan-2-yl)-4-(2-(tetrahydro-2H-pyran-4-yl)acetyl)piperazine-2-carboxamide]"
2,> 10000,"Cc1cccn2c(C(C)(C)NC(=O)[C@@H]3CN(C(=O)C4CC(F)(F)C4)CCN3)ncc12 [SC-080, (S)-4-(3,3-difluorocyclobutane-1-carbonyl)-N-(2-(8-methylimidazo[1,5-a]pyridin-3-yl)propan-2-yl)piperazine-2-carboxamide]"
3,> 10000,"Cc1cccn2c(C(C)(C)NC(=O)[C@@H]3CN(C(=O)c4cnn(C(C)C)c4)CCN3)ncc12 [SC-081, (S)-4-(1-isopropyl-1H-pyrazole-4-carbonyl)-N-(2-(8-methylimidazo[1,5-a]pyridin-3-yl)propan-2-yl)piperazine-2-carboxamide]"
4,5400,"Cc1cccn2c(C(C)(C)NC(=O)[C@@H]3CN(C(=O)c4ccnn4C)CCN3)ncc12 [SC-082, (S)-4-(1-methyl-1H-pyrazole-5-carbonyl)-N-(2-(8-methylimidazo[1,5-a]pyridin-3-yl)propan-2-yl)piperazine-2-carboxamide]"
5,6700,"Cc1cccn2c(C(C)(C)NC(=O)[C@@H]3CN(C(=O)c4cnn(C)c4)CCN3)ncc12 [SC-083, (S)-4-(1-methyl-1H-pyrazole-4-carbonyl)-N-(2-(8-methylimidazo[1,5-a]pyridin-3-yl)propan-2-yl)piperazine-2-carboxamide]"
6,> 10000,"Cc1cccn2c(C(C)(C)NC(=O)[C@@H]3CN(C(=O)c4ccn(C)n4)CCN3)ncc12 [SC-084, (S)-4-(1-methyl-1H-pyrazole-3-carbonyl)-N-(2-(8-methylimidazo[1,5-a]pyridin-3-yl)propan-2-yl)piperazine-2-carboxamide]"
7,0.11,"Cc1cccn2c(C(C)(C)NC(=O)[C@@H]3CNCCN3Cc3ccccc3)ncc12 [SC-085, (S)-1-benzyl-N-(2-(8-methylimidazo[1,5-a]pyridin-3-yl)propan-2-yl)piperazine-2-carboxamide]"
8,0.16,"Cc1cccn2c(C(C)(C)NC(=O)[C@@H]3CNCCN3CC3CCOCC3)ncc12 [SC-086, (S)-N-(2-(8-methylimidazo[1,5-a]pyridin-3-yl)propan-2-yl)-1-((tetrahydro-2H-pyran-4-yl)methyl)piperazine-2-carboxamide]"
9,0.27,"Cc1cccn2c(C(C)(C)NC(=O)[C@@H]3CNCCN3CC3CCC(F)(F)CC3)ncc12 [SC-087, (S)-1-((4,4-difluorocyclohexyl)methyl)-N-(2-(8-methylimidazo[1,5-a]pyridin-3-yl)propan-2-yl)piperazine-2-carboxamide]"
10,0.79,"Cc1ccc(CN2CCNC[C@H]2C(=O)NC(C)(C)c2ncc3c(C)cccn23)cn1 [SC-088, (S)-N-(2-(8-methylimidazo[1,5-a]pyridin-3-yl)propan-2-yl)-1-((6-methylpyridin-3-yl)methyl)piperazine-2-carboxamide]"
11,0.55,"Cc1cccn2c(C(C)(C)NC(=O)[C@@H]3CNCCN3CC3CC(F)(F)C3)ncc12 [SC-089, (S)-1-((3,3-difluorocyclobutyl)methyl)-N-(2-(8-methylimidazo[1,5-a]pyridin-3-yl)propan-2-yl)piperazine-2-carboxamide]"
12,1.8,"Cc1cccn2c(C(C)(C)NC(=O)[C@@H]3CNCCN3Cc3cnn(C)c3)ncc12 [SC-090, (S)-1-((1-methyl-1H-pyrazol-4-yl)methyl)-N-(2-(8-methylimidazo[1,5-a]pyridin-3-yl)propan-2-yl)piperazine-2-carboxamide]"
13,0.06,"Cc1cc(CN2CCNC[C@H]2C(=O)NC(C)(C)c2ncc3c(C)cccn23)ccn1 [SC-091, (S)-N-(2-(8-methylimidazo[1,5-a]pyridin-3-yl)propan-2-yl)-1-((2-methylpyridin-4-yl)methyl)piperazine-2-carboxamide]"
14,1.1,"COCCN1CCNC[C@H]1C(=O)NC(C)(C)c1ncc2c(C)cccn12 [SC-092, (S)-1-(2-methoxyethyl)-N-(2-(8-methylimidazo[1,5-a]pyridin-3-yl)propan-2-yl)piperazine-2-carboxamide]"
15,0.21,"Cc1cccc2c(C(C)(C)NC(=O)[C@@H]3CNCCN3C)n[nH]c12 [SC-094, (S)-1-methyl-N-(2-(7-methyl-1H-indazol-3-yl)propan-2-yl)piperazine-2-carboxamide]"
